Laboratory results published in patent US11406620B2, “Use of carbamate compound for preventing or treating diseases associated with increase in late sodium current” (SK BIOPHARMACEUTICALS CO., LTD., priority 2017, dated 2022).

Experiments:
[1] = biological target: hNav1.5 sodium channel, fast current (Homo sapiens, UniProt Q14524); assay: Whole cell patch clamp, fast sodium current of hNav1.5 in HEK293 cells; conditions: pH 7.4
Description: (§1) To study the […] Nav1.5 channel, a cell line stably expressing […] (Gene ID: 6331, https://www.ncbi.nlm.nih.gov/gene/6331) encoding a human Nav1.5 channel in HEK293 cells was used.
(§2) Pulse-protocol uses a protocol that gives a −15 mV stimulus for 385 ms at a holding voltage of −120 mV, and then returns to a holding voltage of −120 mV, and the current generated with the −15 mV stimulus (fast current) and the current just before returning to −120 mV (late current) was measured.
(§3) The composition of the external solution used in the experiment is as follows: 137 mM NaCl, 4 mM KCl, 1.8 mM CaCl2) mM, 1 mM MgCl2, 10 mM HEPES, 11 mM D-Glucose, pH 7.4 (NaOH), 280 mOsm.
(§4) The composition of the internal solution used in the experiment is as follows: 130 mM CsCl, 1 mM MgCl2, 7 mM NaCl, 5 mM HEPES, 5 mM EGTA, pH 7.2 (CsOH), 270 mOsm.

[2] = biological target: hNav1.5 sodium channel, late current (Homo sapiens, UniProt Q14524); assay: Whole cell patch clamp, late sodium current of hNav1.5 in HEK293 cells (veratridine-activated); conditions: human, pH 7.4
hNav1.5 sodium channel, late current, sequence (Q14524 whole entry): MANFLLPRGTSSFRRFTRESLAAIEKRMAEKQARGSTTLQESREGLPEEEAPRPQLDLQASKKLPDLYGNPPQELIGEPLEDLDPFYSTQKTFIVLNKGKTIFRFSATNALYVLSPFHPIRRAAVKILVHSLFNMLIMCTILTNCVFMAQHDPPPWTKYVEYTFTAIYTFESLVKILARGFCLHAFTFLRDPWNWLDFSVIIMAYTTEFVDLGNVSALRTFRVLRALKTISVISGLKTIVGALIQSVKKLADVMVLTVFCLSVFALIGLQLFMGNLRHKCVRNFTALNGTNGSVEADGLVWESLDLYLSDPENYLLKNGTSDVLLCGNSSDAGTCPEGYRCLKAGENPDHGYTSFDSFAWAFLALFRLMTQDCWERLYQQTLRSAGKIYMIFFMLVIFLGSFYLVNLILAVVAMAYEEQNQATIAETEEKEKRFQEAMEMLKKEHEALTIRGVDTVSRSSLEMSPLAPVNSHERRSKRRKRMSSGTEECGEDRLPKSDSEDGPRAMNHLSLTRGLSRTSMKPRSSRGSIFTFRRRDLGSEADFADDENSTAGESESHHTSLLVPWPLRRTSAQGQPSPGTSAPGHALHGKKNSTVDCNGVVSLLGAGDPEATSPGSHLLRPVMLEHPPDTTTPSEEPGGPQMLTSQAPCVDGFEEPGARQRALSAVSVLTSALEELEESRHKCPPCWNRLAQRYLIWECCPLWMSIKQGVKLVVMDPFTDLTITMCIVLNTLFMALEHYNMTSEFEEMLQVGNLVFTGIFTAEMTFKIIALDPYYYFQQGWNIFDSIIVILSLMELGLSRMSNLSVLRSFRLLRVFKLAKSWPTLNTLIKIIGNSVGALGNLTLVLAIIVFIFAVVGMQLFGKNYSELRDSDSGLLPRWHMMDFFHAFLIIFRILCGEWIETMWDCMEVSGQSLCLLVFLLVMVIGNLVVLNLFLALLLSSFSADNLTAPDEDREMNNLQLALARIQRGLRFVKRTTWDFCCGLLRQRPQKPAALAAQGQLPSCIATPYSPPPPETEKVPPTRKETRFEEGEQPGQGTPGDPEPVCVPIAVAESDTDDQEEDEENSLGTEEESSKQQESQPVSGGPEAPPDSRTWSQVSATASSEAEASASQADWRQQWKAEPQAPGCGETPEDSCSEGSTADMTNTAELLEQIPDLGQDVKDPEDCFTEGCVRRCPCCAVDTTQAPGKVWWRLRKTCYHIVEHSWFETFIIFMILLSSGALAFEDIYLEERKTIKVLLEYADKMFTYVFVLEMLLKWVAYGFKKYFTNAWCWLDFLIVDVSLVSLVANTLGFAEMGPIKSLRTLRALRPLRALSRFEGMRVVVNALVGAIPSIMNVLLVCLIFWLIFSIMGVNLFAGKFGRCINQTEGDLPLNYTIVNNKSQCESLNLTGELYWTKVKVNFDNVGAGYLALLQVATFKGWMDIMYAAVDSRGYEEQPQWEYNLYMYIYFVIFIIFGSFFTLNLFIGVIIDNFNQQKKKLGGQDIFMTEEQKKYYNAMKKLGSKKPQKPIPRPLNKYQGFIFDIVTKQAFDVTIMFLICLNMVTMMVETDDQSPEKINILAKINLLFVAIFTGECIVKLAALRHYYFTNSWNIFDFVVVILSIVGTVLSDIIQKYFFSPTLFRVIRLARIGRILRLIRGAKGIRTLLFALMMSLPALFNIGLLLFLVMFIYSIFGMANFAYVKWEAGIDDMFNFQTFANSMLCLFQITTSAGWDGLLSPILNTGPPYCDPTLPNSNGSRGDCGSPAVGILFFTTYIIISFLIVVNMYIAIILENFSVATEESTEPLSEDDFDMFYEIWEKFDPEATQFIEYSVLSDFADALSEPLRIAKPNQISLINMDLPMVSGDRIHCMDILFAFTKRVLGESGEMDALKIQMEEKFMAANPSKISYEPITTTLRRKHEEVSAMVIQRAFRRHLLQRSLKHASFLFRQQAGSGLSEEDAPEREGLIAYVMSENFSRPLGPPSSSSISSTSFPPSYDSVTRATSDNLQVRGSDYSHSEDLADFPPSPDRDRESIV
Description: as §1, §2, §3, §4

[3] = biological target: human recombinant sodium ion channel Nav1.5 (hNav1.5), late current (Homo sapiens, UniProt Q14524); assay: as above
Description: as §1, §2, §3, §4

[4] = HEK293 cells stably expressing human Nav1.5 (SCN5A)

hNav1.5 sodium channel, fast current, sequence (Q14524 whole entry): as above

Row | SMILES | inhibition at 10 μM [1, 4] [%] | inhibition at 30 μM [1, 4] [%] | inhibition at 100 μM [1, 4] [%] | inhibition at 300 μM [1, 4] [%] | inhibition at 10 μM [2, 4] [%] | inhibition at 30 μM [2, 4] [%] | inhibition at 100 μM [2, 4] [%] | inhibition at 300 μM [2, 4] [%] | Inhibition ratio of late current/fast current ([3]; 10 μM) | Inhibition ratio of late current/fast current ([3]; 30 μM) | Inhibition ratio of late current/fast current ([3]; 100 μM) | Inhibition ratio of late current/fast current ([3]; 300 μM) | also measured
1 | NC(=O)N1c2ccccc2C=Cc2ccccc21 [Carbamazepine] | 7.7 | 12.3 | 24.5 | 51.4 | 20.4 | 36.2 | 65.4 | 86.9 | 2.6 | 2.9 | 2.7 | 1.7 | 
2 | Nc1nnc(-c2cccc(Cl)c2Cl)c(N)n1 [Lamotrigine, lamotrigine] | 8.3 | 16.6 | 29 | 51.2 | 10.7 | 32.9 | 56.7 | 80.1 | 1.3 | 2.0 | 2.0 | 1.6 | 
3 | NC(=O)O[C@@H](Cn1ncnn1)c1ccccc1Cl [Test compound, carbamic acid (R)-1-(2-chlorophenyl)-2-tetrazol-2-yl-ethyl ester] |  |  |  |  |  |  |  |  | 3.8 | 4.2 | 2.6 | 1.9 | inhibition at 10 μM [1]: 3%; inhibition at 30 μM [1]: 5.7%; inhibition at 100 μM [1]: 13%; inhibition at 300 μM [1]: 26.2%; inhibition at 10 μM [2]: 11.4%; inhibition at 30 μM [2]: 24%; inhibition at 100 μM [2]: 33.9%; inhibition at 300 μM [2]: 49.8%; Selectivity of inhibition of late versus fast sodium current (in words) ([3]; at a concentration in the drug effective concentration range, compared to the comparative compounds): inhibited the late sodium current more selectively than the fast sodium current
